Among the test systems are COLO 205 colon; EKVX NSCLC; HL-60(TB) leukemia; HS 578T breast; IGROV1 ovarian; K-562 leukemia; LXFL 529 NSCLC; NCI-H23 lung; SK-MEL-5 melanoma.
Common to all, as to test: inhibition of tumour cell growth, NCI panel, 48 h

Where “and” joins values, the source holds several entries; their conditions need not be identical. Equal entries are not always repeated.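 96-well plates; 48 h exposure; 5 concentrations. Endpoints by linear interpolation between flanking doses. Not reached: highest tested concentration assigned. GI50 marks 50% less growth. At the TGI there is no net growth.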 *1 amine or outer side, *2 acyl side, *3 side chain or, on linkers, in order; H or OH if unused. Where a SMILES comes first, the peptide text is derived from it. Bridges are numbered along the chain shown (N, C = ends). Roman numbers before positions name the chains, in order. [ ]: non-standard residue; d: D form. Actinocin(9to1) = Cc1c2oc3c(C)ccc(C(=O)[*:1])c3nc-2c(C(=O)[*:2])c(N)c1=O; NMeF = CN[CH](Cc1ccccc1)C(=O)O; Sar = CNCC(=O)O Some results are limits rather than exact numbers.

For the compound `CCCCCCCCCCCCCCCCCC(=O)Nc1ccn(C2OC(CO)C(O)C2O)c(=O)n1` (stereo not given), the TGI in the assay with COLO 205 colon was over 100 µM; in the assay on EKVX NSCLC, over 100 µM; in the assay with HL-60(TB) leukemia, 41.8 µM; in the assay on HS 578T breast, over 100 µM; in the assay with IGROV1 ovarian, over 100 µM; with K-562 leukemia it was over 100 µM. The TGI was over 100 µM in the assay with LXFL 529 NSCLC, 98.7 µM with NCI-H23 lung and over 97.5 µM with SK-MEL-5 melanoma.

Regarding `Nc1ncc(-c2cccc(S(N)(=O)=O)c2)c2scc(-c3ccc(F)c(Cl)c3)c12`, the GI50 was 5.92 µM in the assay on COLO 205 colon; 7.75 µM with EKVX NSCLC; 4.76 µM with HL-60(TB) leukemia; 7.23 µM in the assay on HS 578T breast; 6.58 µM in the assay on IGROV1 ovarian; 0.705 µM in the assay with K-562 leukemia. For the same compound, the GI50 was 7.05 µM in the assay with NCI-H23 lung and 4 µM with SK-MEL-5 melanoma. The TGI was 11.8 µM in the assay on COLO 205 colon; over 24.2 µM in the assay with EKVX NSCLC; 11.7 µM in the assay on HL-60(TB) leukemia; 22 µM with HS 578T breast; 22.3 µM in the assay on IGROV1 ovarian; over 11.7 µM with K-562 leukemia. Besides, the results for the TGI with NCI-H23 lung and with SK-MEL-5 melanoma were over 21 µM and 7.46 µM, respectively.

Turning to `O=C(CCC(=O)C1CCC/C1=N/O)Nc1ccc(Cl)cc1` (stereo not given), the TGI in the assay with COLO 205 colon, in the assay with EKVX NSCLC, in the assay on HL-60(TB) leukemia, in the assay with IGROV1 ovarian, with K-562 leukemia and in the assay with LXFL 529 NSCLC was over 100 µM throughout. For the same compound, the TGI in the assay on NCI-H23 lung and in the assay on SK-MEL-5 melanoma was over 100 µM each time.

For `COc1c(B(O)O)cc(F)cc1-c1nc2ccc3[nH]ncc3c2c2c1CCCC2`, the GI50 is 1.61 µM in the assay with COLO 205 colon; 2.37 µM in the assay with EKVX NSCLC; 0.112 µM with HL-60(TB) leukemia; 0.0173 µM with HS 578T breast; 1.49 µM in the assay on IGROV1 ovarian; 3.27 µM with K-562 leukemia. Besides, the GI50 in the assay on NCI-H23 lung was 2.02 µM; in the assay with SK-MEL-5 melanoma, 1.99 µM. The TGI with COLO 205 colon is 4.97 µM; with EKVX NSCLC it was 10.2 µM; in the assay with HL-60(TB) leukemia, 10.5 µM; in the assay with HS 578T breast, 5.43 µM; in the assay on IGROV1 ovarian, 11.2 µM; with K-562 leukemia, over 100 µM. Besides, the TGI was 7.61 µM in the assay on NCI-H23 lung and 7.34 µM with SK-MEL-5 melanoma.

As to `Cc1c(Cl)cccc1NC(=O)c1sc2nc3c(cc2c1N)CCCCC3`, the GI50 with COLO 205 colon was 0.596 µM; in the assay on EKVX NSCLC, 0.316 µM; in the assay on HL-60(TB) leukemia, 0.143 µM; in the assay on HS 578T breast it was 0.227 µM; in the assay with IGROV1 ovarian, 0.376 µM; with K-562 leukemia it was 0.166 µM. For the same compound, the results for the GI50 in the assay on NCI-H23 lung and in the assay with SK-MEL-5 melanoma were 0.391 µM and 0.263 µM, respectively. The TGI in the assay on COLO 205 colon was 13.2 µM; with EKVX NSCLC it was over 50 µM; with HL-60(TB) leukemia, 0.484 µM; in the assay on HS 578T breast, over 50 µM; in the assay with IGROV1 ovarian, over 50 µM; with K-562 leukemia, over 50 µM. Also, the values for the TGI in the assay with NCI-H23 lung and in the assay with SK-MEL-5 melanoma were over 50 µM and 48.6 µM, respectively.

Take `Cc1c([N+](=O)[O-])oc2ccc3ccccc3c12`: the TGI in the assay on COLO 205 colon, in the assay on EKVX NSCLC, with HL-60(TB) leukemia, in the assay with HS 578T breast, in the assay on IGROV1 ovarian and with K-562 leukemia was over 100 µM throughout. Also, the TGI with NCI-H23 lung and with SK-MEL-5 melanoma was over 100 µM in each case.

For `CCSc1ccc(C2C(Br)C(=O)N2c2cc(OC)c(OC)c(OC)c2)cc1` (stereo not given), the GI50 in the assay with COLO 205 colon was 0.23 µM; with EKVX NSCLC it was 0.639 µM; in the assay with HL-60(TB) leukemia, 0.214 µM; in the assay with HS 578T breast it was 0.229 µM; with IGROV1 ovarian, 0.63 µM; in the assay on K-562 leukemia, 0.0545 µM. The results for the GI50 in the assay on NCI-H23 lung and in the assay with SK-MEL-5 melanoma were 0.478 µM and 0.0861 µM, respectively. Besides, the TGI in the assay on COLO 205 colon was 0.823 µM; in the assay on EKVX NSCLC it was over 100 µM; in the assay with HL-60(TB) leukemia, 0.527 µM; in the assay on HS 578T breast, over 100 µM; in the assay on IGROV1 ovarian it was 20.9 µM; in the assay with K-562 leukemia, over 100 µM. In addition, the TGI with NCI-H23 lung is 73.4 µM; in the assay with SK-MEL-5 melanoma, 2.84 µM.

With `CC(C)=CCCC(C)C1=C(O)C(=O)C(C)=CC1=O` (stereo not given), the TGI in the assay on COLO 205 colon was 18.2 µM; in the assay on EKVX NSCLC, over 49.8 µM; with HL-60(TB) leukemia it was 0.586 µM; in the assay on HS 578T breast, over 79.3 µM; in the assay on IGROV1 ovarian, 32.8 µM; in the assay on K-562 leukemia, 4.37 µM. Also, the values for the TGI with NCI-H23 lung and with SK-MEL-5 melanoma were 34 µM and 24.6 µM, respectively.

Turning to `COc1cc(-c2csc(NC(=O)Nc3cc(Cl)cc(Cl)c3)n2)cc(OC)c1OC`, the GI50 is 3.11 µM in the assay on COLO 205 colon; 1.87 µM with EKVX NSCLC; 3.65 µM in the assay with HL-60(TB) leukemia; 1.94 µM in the assay with HS 578T breast; 2.03 µM in the assay with IGROV1 ovarian; 4.4 µM in the assay with K-562 leukemia. Besides, the values for the GI50 in the assay with NCI-H23 lung and with SK-MEL-5 melanoma were 1.94 µM and 3.15 µM, respectively. In addition, the TGI in the assay on COLO 205 colon was 11.4 µM; in the assay with EKVX NSCLC, 4.22 µM; in the assay with HL-60(TB) leukemia, over 100 µM; in the assay with HS 578T breast it was 4.91 µM; with IGROV1 ovarian, 4.04 µM; with K-562 leukemia, over 100 µM. For the same compound, the TGI in the assay with NCI-H23 lung stood at 4.5 µM; with SK-MEL-5 melanoma it was 11.2 µM.

For the compound `Cc1c2oc3c(C)ccc(C(=O)NC4C(=O)NC(C(C)C)C(=O)N5CCCC5C(=O)N(C)CC(=O)N(C)C(Cc5ccccc5)C(=O)OC4C)c3nc-2c(C(=O)NC2C(=O)NC(C(C)C)C(=O)N3CCCC3C(=O)N(C)CC(=O)N(C)C(Cc3ccccc3)C(=O)OC2C)c(N)c1=O` (stereo not given) (I: TVP[Sar][NMeF] / II: TVP[Sar][NMeF]; ester I:1-I:C, II:1-II:C; linker I:N-II:N via Actinocin(9to1); configuration not given here), the GI50 in the assay with COLO 205 colon is 0.00372 µM; in the assay with EKVX NSCLC, < 0.01 µM and 0.0389 µM; with HL-60(TB) leukemia it was 0.00285 µM; with IGROV1 ovarian it was < 0.01 µM and 0.0028 µM; with K-562 leukemia, 0.00115 µM. In addition, the TGI is 0.0266 µM with COLO 205 colon; 0.0931 µM and > 0.603 µM in the assay on EKVX NSCLC; 0.0205 µM with HL-60(TB) leukemia; < 0.01 µM and 0.0685 µM in the assay on HS 578T breast; < 0.01 µM and 0.0376 µM with NCI-H23 lung; < 0.01 µM and 0.0479 µM in the assay with SK-MEL-5 melanoma.

Turning to `O=Nc1c(-c2c(O)[nH]c3ccc(Br)cc23)[nH]c2ccccc12`, the GI50 was 2.82 µM in the assay on COLO 205 colon; 3 µM in the assay on EKVX NSCLC; 3.38 µM in the assay on HL-60(TB) leukemia; 3.03 µM in the assay with HS 578T breast; 2.5 µM with IGROV1 ovarian; 2 µM in the assay on K-562 leukemia. The GI50 in the assay with NCI-H23 lung was 3.13 µM; in the assay with SK-MEL-5 melanoma it was 1.24 µM. Moreover, the TGI in the assay on COLO 205 colon is 13.9 µM; in the assay on EKVX NSCLC, 15.5 µM; in the assay with HL-60(TB) leukemia it was 6.22 µM; in the assay on HS 578T breast, 10.2 µM; in the assay with IGROV1 ovarian, over 100 µM; with K-562 leukemia, 4.87 µM. The TGI was 12.8 µM in the assay on NCI-H23 lung and 2.53 µM in the assay with SK-MEL-5 melanoma.

These data come from PubChem BioAssay (NCI).
